Reference: patent publication US8846687B2, “Pyrazine compounds as PI3 kinase inhibitors” (Novartis AG, priority 2008, dated 2014)

Each compound was assayed against recombinant GST-p110γ (human PI 3-Kγ) (Homo sapiens, UniProt P48736) (assay: PI 3-kinase gamma in vitro kinase assay (Scintillation Proximity Assay)).
Sequence of recombinant GST-p110γ (human PI 3-Kγ) (P48736 38-1102): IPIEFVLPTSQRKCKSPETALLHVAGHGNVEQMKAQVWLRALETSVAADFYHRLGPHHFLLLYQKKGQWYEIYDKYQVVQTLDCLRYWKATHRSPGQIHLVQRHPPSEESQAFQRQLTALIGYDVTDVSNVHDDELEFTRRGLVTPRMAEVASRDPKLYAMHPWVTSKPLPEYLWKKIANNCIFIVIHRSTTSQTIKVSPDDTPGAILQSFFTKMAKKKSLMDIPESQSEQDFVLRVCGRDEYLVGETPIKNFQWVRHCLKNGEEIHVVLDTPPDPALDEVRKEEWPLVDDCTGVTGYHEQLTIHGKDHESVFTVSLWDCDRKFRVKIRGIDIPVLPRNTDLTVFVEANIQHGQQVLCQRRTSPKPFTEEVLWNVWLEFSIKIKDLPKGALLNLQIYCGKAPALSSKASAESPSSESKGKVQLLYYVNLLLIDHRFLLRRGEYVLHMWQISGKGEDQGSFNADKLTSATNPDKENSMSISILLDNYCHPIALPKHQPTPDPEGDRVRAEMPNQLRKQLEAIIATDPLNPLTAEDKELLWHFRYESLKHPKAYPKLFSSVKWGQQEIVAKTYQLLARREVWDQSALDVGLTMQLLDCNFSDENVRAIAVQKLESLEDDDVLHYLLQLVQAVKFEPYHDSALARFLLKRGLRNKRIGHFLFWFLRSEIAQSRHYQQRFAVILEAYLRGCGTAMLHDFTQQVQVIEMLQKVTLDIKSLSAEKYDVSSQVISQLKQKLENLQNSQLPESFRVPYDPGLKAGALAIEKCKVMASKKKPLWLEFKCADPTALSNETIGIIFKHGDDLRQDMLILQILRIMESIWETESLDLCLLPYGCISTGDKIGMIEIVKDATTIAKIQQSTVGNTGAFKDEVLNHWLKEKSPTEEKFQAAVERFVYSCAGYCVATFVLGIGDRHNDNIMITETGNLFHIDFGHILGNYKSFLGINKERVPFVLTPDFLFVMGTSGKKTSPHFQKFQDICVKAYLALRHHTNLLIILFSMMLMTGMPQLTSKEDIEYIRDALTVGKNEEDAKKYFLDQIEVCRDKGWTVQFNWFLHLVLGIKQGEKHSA
Experimental: To express the recombinant protein, Sf9 (Spodoptera frugiperda 9) insect cells are routinely maintained at densities between 3×10^5 and 3×10^6 cells/ml in serum containing TNMFH medium (Sigma). Sf9 cells, at a density of 2×10^6 are infected with human GST-PI 3-KγΔ34 baculovirus at a multiplicity of infection (m.o.i.) of 1 for 72 hours. The infected cells are harvested by centrifugation at 1400 g for 4 minutes at 4° C. and the cell pellets are frozen at −80° C. […] Sf9 cells (1×10^9) are resuspended in 100 ml cold (4° C.) lysis buffer (50 mM Tris-HCl pH 7.5, 1% Triton X-100, 150 mM NaCl, 1 mM NaF, 2 mM DTT and protease inhibitors. Cells are incubated on ice for 30 minutes then centrifuged at 15000 g for 20 minutes at 4° C. Purification of the supernatant sample is carried out at 4° C. by affinity chromatography using SEPHAROSE™ agarose gel beads coupled to glutathione (from Amersham Pharmacia Biotech). A cell lysate/GST resin ratio of 50:1 is used. The GST resin is firstly pre-rinsed to remove ethanol preservative and then equilibrated with lysis buffer. Cell lysate (supernatant) is added (usually as 50 ml lysate to 1 ml GST resin in 50 ml tubes) and gently rotated on a mixer at 4° C. for 2-3 hours. The unbound flow through sample is collected by centrifugation at 1000 g for 5 minutes at 4° C. using a DENLEY™ centrifuge. The 1 ml GST resin containing bound material is transferred to a 15 ml FALCON™ centrifuge tube for subsequent washing and elution steps. Firstly a series of 3 cycles of washings (mixing by gentle inversion) is performed with 15 ml ice cold wash Buffer A (50 mM Tris-HCl pH 7.5, 1% Triton X-100, 2 mM DTT) interspersed with centrifugation at 1000 g for 5 minutes at 4° C. A final single wash step is performed with 15 ml ice cold wash Buffer B (50 mM Tris-HCl pH 7.5, 2 mM DTT) and then centrifuged at 1000 g for 5 minutes at 4° C. The washed GST resin is finally eluted with 4 cycles of 1 ml ice cold elution buffer (50 mM Tris-HCl pH 7.5, 10 mM reduced glutathione, 2 mM DTT, 150 mM NaCl, 1 mM NaF, 50% ethylene glycol and protease inhibitors) interspersed with centrifugation at 1000 g for 5 minutes at 4° C. Samples are aliquoted and stored at −20° C.
An in vitro kinase assay was established that measures the transfer of the terminal phosphate of adenosine triphosphate to phosphatidylinositol. The kinase reaction is performed in a white 96 well microtitre plate as a Scintillation Proximity Assay. Each well contains 10 μl test compound in 5% dimethylsulfoxide and 20 μl assay mix (40 mM Tris, 200 mM NaCl, 2 mM ethyleneglycol-aminoethyl-tetraacetic acid (EGTA), 15 μg/ml phosphatidylinositol, 12.5 μM adenosine triphosphate (ATP), 25 mM MgCl2, 0.1 μCi [^33P]ATP). The reaction is started by the addition of 20 μl of enzyme mix (40 mM Tris, 200 mM NaCl, 2 mM EGTA containing recombinant GST-p110γ).

Structure (SMILES)	IC50 [µM]
Nc1ncc(-c2cnc(N)c(C(=O)c3cccnc3)n2)cc1C(F)(F)F [Example 1, [3-Amino-6-(6-amino-5-trifluoromethyl-pyridin-3-yl)-pyrazin-2-yl]-pyridiny-3-yl-methanone]	0.033
Nc1ncc(-c2ccc(Cl)c(S(=O)(=O)Nc3ccccc3)c2)nc1C(=O)c1cccnc1 [Example 13, 5-[5-Smino-6-(pyridine-3-carbonyl)-pyrazin-2-yl]-2-chloro-N-phenyl-benzenesulfonamide]	0.012
Nc1ncc(-c2cncc(C(=O)N3CCOCC3)c2)nc1C(=O)c1cccnc1 [Example 28]	0.373
Nc1cccc(-c2cnc(N)c(C(=O)c3cccnc3)n2)c1 [Example 51, [3-Amino-6-(3-amino-phenyl)-pyrazin-2-yl]-pyridin-3-yl-methanone]	0.393
Nc1ncc(-c2cc(C(F)(F)F)cc(S(N)(=O)=O)c2)nc1C(=O)c1cccnc1 [Example 67, 3-[5-Amino-6-(pyridine-3-carbonyl)-pyrazin-2-yl]-5-trifluoromethyl-benzenesulfonamide]	0.431

Continued, values first:

IC50 [µM]	Structure (SMILES)
0.587	Nc1ncc(-c2ccc3c(c2)OCO3)nc1C(=O)c1cccnc1 [Example 35, (3-Amino-6-benzo[1,3]dioxol-5-yl-pyrazin-2-yl)-pyridin-3-yl-methanone]
0.362	Nc1ncc(-c2cccc(C(=O)O)c2)nc1C(=O)c1cccnc1 [Example 49, 3-[5-Amino-6-(pyridine-3-carbonyl)-pyrazin-2-yl]-benzoic acid]
0.125	Nc1ncc(-c2cc(S(=O)(=O)N3CCOCC3)c(F)cc2F)nc1C(=O)c1cccnc1 [Example 74, {3-Amino-6-[2,4-difluoro-5-(morpholine-4-sulfonyl)-phenyl]-pyrazin-2-yl}-pyridin-3-yl-methanone]
0.753	Nc1ncc(-c2ccc(Cl)c(Cl)c2)nc1C(=O)c1ccc(CN2CCCCC2)cc1 [Example 86, [3-Amino-6-(3,4-dichloro-phenyl)-pyrazin-2-yl]-(4-piperidin-1-ylmethyl-phenyl)-methanone]
